Patent US20240016784A1, “Y BOX BINDING PROTEIN 1 INHIBITORS” (Oregon Health & Science University, priority 2020, published 2024)

Key:
[1] = tested on: OVCAR8 OC tumors; assay: OVCAR8 xenograft combination study; format: in vivo, NOD-SCID mice; conditions: SU056 10 mg/kg daily, paclitaxel 5 mg/kg weekly, intraperitoneal, 28 days
Experimental: In a pharmacokinetics study in vivo, injection of 20 mg/kg SU056 led to a maximum serum concentration of 28.19 μg/mL with a T1/2 of ˜45 min. We then tested the synergism of paclitaxel and SU056 co-treatment in vivo in NOD-SCID mice implanted with OVCAR8 OC tumors as described above. Mice were given daily treatment of SU056 (10 mg/kg) and weekly treatment of paclitaxel (5 mg/kg) were administered intraperitoneally. […] This likely resulted from decreased paclitaxel efflux from OVCAR8 cells in the presence of SU056.
In vivo xenograft model and drug efficacy study: All animal experiments were reviewed and approved by the Animal Care and Use Committee of Stanford University, CA, USA. Luciferase tagged ID8 (2×10^6) or OVCAR8 (5×10^6) cells were implanted into the right flank of 6-7-week-old female C57BL/6 mice and NOD/SCID mice, respectively. Respective treatment began after tumors grew to 100-200 mm^3 diameters. The ID8 syngeneic mice model was treated with a vehicle (30% PEG-300 in saline), 20 mg/kg SU093, and 20 mg/kg SU056 intraperitoneally (IP) daily for 42 days. At the end of treatment, blood was collected from each mouse and analyzed for liver toxicity parameters, including Alanine Aminotransferase (ALT), Aspartate Aminotransferase (AST), and Alkaline Phosphatase (ALKP). […]

[2] = tested on: MDA-MB-231, MDA-MB-468 and SUT1151-PDX xenografts; assay: Tumor xenografts of TNBC models; format: in vivo, Mice; conditions: SU056 50 mg/kg, oral gavage
Experimental: FIGS. 13A-13I. […] Mice were subcutaneously injected with MDA-MB-231 (2×10^6 cells), MDA-MB-468 (5×10^6 cells) and patient derived xenograft SUT1151-PDX (2×10^6 cells) and drug treatment started when tumor reached 100 mm^3. Mice were given either vehicle (40% PEG in saline) or SU056 (50 mg/kg) through oral route using oral gavage. FIG. 13A) Tumor volume (MDA-MB-231) as a function of time. FIG. 13B) Tumor weight (MDA-MB-231) at the end of the study. FIG. 13C) Body weight (MDA-MB-231) as a function of time. FIG. 13D) Tumor volume (MDA-MB-468) as a function of time. FIG. 13E) Tumor weight (MDA-MB-468) at the end of the study. FIG. 13F) Body weight (MDA-MB-468) as a function of time. FIG. 13G) Representative images of tumor (MDA-MB-231) at the end of study. FIG. 13H) Representative images of tumor (MDA-MB-468) at the end of study. FIG. 13I) Tumor volume (SUT1151-PDX) as a function of time. FIG. 13B) Tumor weight (SUT1151-PDX) at the end of the study. FIG. 13C) Body weight (SUT1151-PDX) as a function of time.

[3] = Liver microsomes metabolic profiling; format: in vitro ADME
Description: FIGS. 15A-15E. […] SU056 treatment at increasing concentrations dose not challenge the dietary behavior as reflected by change in body weight FIG. 15A) Mice and FIG. 15B) Rat. […] Liver microsomes were used for the purpose of metabolic profiling.

[4] = tested on: Multidrug resistance 1 (MDR1, ABC pump mediated efflux); assay: Multidrug Resistance Assay (fluorometric MDR assay); format: cell-based; conditions: 2.5 μM for 12 h; six different OC cell lines
Experimental: Out of six targets identified, we selected proteins whose thermal shift is above 5° in the presence of SU056 for further study of protein expression after treatment. […] To study the in vivo effects of SU056 treatment, we analyzed ID8 tumor xenograft samples via immunohistochemistry (IHC). […] To identify the broader effects of SU056 on YB-1 and its downstream protein/activity in different ovarian cancer cell lines, we selected six different cell lines and treated them with SU056 (2.5 μM) for 12 h. Cells were analyzed for YB-1 and CD44 expression and Multidrug resistance 1 (MDR1, ABC pump mediated efflux). […] Finally, we tested the time kinetics and dose-dependent effects of SU056 on YB-1 expression. OVCAR4, OVCAR8, and SKOV3 cells were treated with SU056 (1, 2.5, and 5 μM) for 3, 6, 12, and 24 h and YB-1 expression was measured using YB-1 ELISA. […] 5 μM treatment for 24 h inhibited YB-1 completely (100%) in all three OC cells (FIG. 4E). […]
FIGS. 4A-4E: SU056 inhibits YB-1. […] FIG. 4C) Respective OC cells were treated with 2.5 μM SU056 for 12 h and YB-1 & CD44 expression and multidrug resistance activity was measured as described in the ‘method’ section. The % inhibition was calculated and compared to the control for the respective cell line. […]

[5] = target: YB-1 (Homo sapiens, UniProt P67809); assay: Pulldown assay using biotinylated SU056; conditions: OVCAR8 cells and protein lysate
Sequence of YB-1 (P67809 whole entry): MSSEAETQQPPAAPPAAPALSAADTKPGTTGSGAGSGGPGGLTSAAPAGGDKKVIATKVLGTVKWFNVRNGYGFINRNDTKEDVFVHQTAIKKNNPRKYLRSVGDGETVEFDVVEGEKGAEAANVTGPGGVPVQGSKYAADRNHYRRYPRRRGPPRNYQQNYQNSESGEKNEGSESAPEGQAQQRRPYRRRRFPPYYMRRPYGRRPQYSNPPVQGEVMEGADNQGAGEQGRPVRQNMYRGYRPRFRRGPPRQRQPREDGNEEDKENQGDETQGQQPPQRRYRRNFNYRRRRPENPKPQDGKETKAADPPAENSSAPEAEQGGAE
Experimental: Pulldown assay using biotinylated SU056: protein pulldown assay was performed using biotinylated SU056. […] Pulldown from cells: OVCAR8 cells were treated with 2.5 μM biotinylated SU056 for 1.5 h. Treated cells were collected and lysed using M-PER™ lysis solution (Thermo Scientific, #78503), supplemented with Halt protease and phosphatase inhibitor cocktail (Thermo Scientific, #78440). 300 μg protein was incubated with magnetic conjugate streptavidin bead (CST, #5947) at 4° C. on rocker overnight. […] Pulldown from cell lysates: OVCAR8 cells were collected and lysed using M-PER™ lysis solution (Thermo Scientific, #78503), supplemented with Halt protease and phosphatase inhibitor cocktail (Thermo Scientific, #78440). 1000 μg protein was incubated with 10 μM biotinylated SU056 at 4° C. on rocker overnight followed by overnight incubation with magnetic conjugate streptavidin bead (CST, #5947) at 4° C. After both the pulldown, biotin-streptavidin conjugates were pulldown and washed using magnetic rack. After three washing, beads were resuspended in 2×SDS sample buffer followed by heating at 90-100° C. for 5 min. Samples were resolved and probed with GBP1 (Abnova, #H00002633-PW1, 1:2000) and YB-1 (CST, #8475; 1:2000) as described above in immunoblotting. […]

SMILES: O=C1OCC2=C1C(c1cccc(F)c1)c1cc3c(cc1N2CCO)OCO3 (centres unmarked) [SU056, 9-(3-fluorophenyl)-5-(2-hydroxyethyl)-6,9-dihydro-[1,3]dioxolo[4,5-g]furo[3,4-b]quinolin-8(5H)-one]
- OC tumor growth [1]: significant reduction in OC tumor growth
- tumor xenograft growth, TNBC models [2]: inhibit tumor xenograft of TNBC models
- half-life [3]: 40 min
- decrease in MDR expression [4]: 41-63%
- physical interaction with YB-1 (pulldown) [5]: physically interacts with YB-1
